Experimental data reported in PMC3094853 (Chembiochem : a European journal of chemical biology, 2010).
pIC50: −log10 of the molar value. Read-outs that look alike come from different tables or passages of the source.

Tests used:
HER2 TK = HER2 TK (Homo sapiens, UniProt P04626); assay: ELISA of biotinylated peptide phosphorylation; format: biochemical
HER1 TK = HER1 TK (Homo sapiens, UniProt P00533); assay: ELISA of biotinylated peptide phosphorylation; format: biochemical; settings: 20 µM ATP; 1.5 µM peptide substrate; 5 mM MgCl2; 5 mM MnCl2; HEPES pH 7.5; 23 °C

pIC50 (HER2 TK)	pIC50 (HER2 TK; 20 µM ATP, 1.5 µM peptide substrate, 5 mM MgCl2, 5 mM MnCl2, HEPES pH 7.5, 23 °C)	pIC50 (HER1 TK)	Molecule
6.23	–	–	COc1cc(/C=C(\C#N)C(N)=O)cc(CSc2nc3ccccc3s2)c1O [AG-825]
–	6.80	6.48	4-trifluoromethylcinnamoyl pyrone [2e]
